The target in one test is T1, CDK2/CycE (Homo sapiens, UniProt P24941).
T1 construct: GST; purchased ProQinase GmbH (Freiburg, Germany); host or cells: insect cells (Sf9)
The test can be described thus: CDK2/CycE high ATP kinase assay (Method 2b). It counts as biochemical. The conditions noted are these: 2 mM ATP. As for the experimental part: 2b. CDK2/CycE High ATP Kinase Assay:
CDK2/CycE-inhibitory activity of compounds of the present invention at 2 mM adenosine-tri-phosphate (ATP) was quantified employing the CDK2/CycE TR-FRET (TR-FRET=Time Resolved Fluorescence Energy Transfer) assay as described in the following paragraphs.
Recombinant fusion proteins of GST and human CDK2 and of GST and human CycE, expressed in insect cells (Sf9) and purified by Glutathion-Sepharose affinity chromatography, were purchase from ProQinase GmbH (Freiburg, Germany) As substrate for the kinase reaction biotinylated peptide biotin-Ttds-YISPLKSPYKISEG (C-terminus in amid form) was used which can be purchased e.g. form the company JERINI peptide technologies (Berlin, Germany).
For the assay 50 nl of a 100 fold concentrated solution of the test compound in DMSO was pipetted into a black low volume 384 well microtiter plate (Greiner Bio-One, Frickenhausen, Germany), 2 μl of a solution of CDK2/CycE in aqueous assay buffer [50 mM Tris/HCl pH 8.0, 10 mM MgCl2, 1.0 mM dithiothreitol, 0.1 mM sodium ortho-vanadate, 0.01% (v/v) Nonidet-P40 (Sigma)] were added and the mixture was incubated for 15 min at 22° C. to allow pre-binding of the test compounds to the enzyme before the start of the kinase reaction. Then the kinase reaction was started by the addition of 3 μl of a solution ATP (3.33 mM=>final conc. in the 5 μl assay volume is 2 mM) and substrate (1.25 μM=>final conc. in the 5 μl assay volume is 0.75 μM) in assay buffer and the resulting mixture was incubated for a reaction time of 25 min at 22° C. The concentration of CDK2/CycE was adjusted depending of the activity of the enzyme lot and was chosen appropriate to have the assay in the linear range, typical concentrations were in the range of 15 ng/ml. The reaction was stopped by the addition of 5 μl of a solution of TR-FRET detection reagents (0.2 μM streptavidine-XL665 [Cisbio Bioassays, Codolet, France] and 1 nM anti-RB(pSer807/pSer811)-antibody from BD Pharmingen [#558389] and 1.2 nM LANCE EU-W1024 labeled anti-mouse IgG antibody [Perkin-Elmer, product no. AD0077, as an alternative a Terbium-cryptate-labeled anti-mouse IgG antibody from Cisbio Bioassays can be used]) in an aqueous EDTA-solution (100 mM EDTA, 0.2% (w/v) bovine serum albumin in 100 mM HEPES/NaOH pH 7.0).
The resulting mixture was incubated 1 h at 22° C. to allow the formation of complex between the phosphorylated biotinylated peptide and the detection reagents. Subsequently the amount of phosphorylated substrate was evaluated by measurement of the resonance energy transfer from the Eu-chelate to the streptavidine-XL. Therefore, the fluorescence emissions at 620 nm and 665 nm after excitation at 350 nm were measured in a TR-FRET reader, e.g. a Rubystar (BMG Labtechnologies, Offenburg, Germany) or a Viewlux (Perkin-Elmer). The ratio of the emissions at 665 nm and at […] was taken as the measure for the amount of phosphorylated substrate. The data were normalised (enzyme reaction without inhibitor=0% inhibition, all other assay components but no enzyme=100% inhibition).

In a further test the test system is HeLa cells. The test can be described thus: Proliferation assay, HeLa (Method 3). Type of test: cell-based, human. The following applies: 4 days, crystal violet, read-out: Inhibition of HeLa cell proliferation IC50. As for the experimental part:
(§1) Cultivated tumour cells (HeLa, human cervical tumour cells, ATCC CCL-2; NCI-H460, human non-small cell lung carcinoma cells, ATCC HTB-177; A2780, human ovarian carcinoma cells, ECACC #93112519; DU 145, hormone-independent human prostate carcinoma cells, ATCC HTB-81; HeLa-MaTu-ADR, multidrug-resistant human cervical carcinoma cells, EPO-GmbH Berlin; Caco-2, human colorectal carcinoma cells, ATCC HTB-37; B16F10, mouse melanoma cells, ATCC CRL-6475) were plated at a density of 5,000 cells/well (DU145, HeLa-MaTu-ADR), 3,000 cells/well (NCI-H460, HeLa), 2,500 cells/well (A2780), 1,500 cells/well (Caco-2), or 1,000 cells/well (B16F10) in a 96-well multititer plate in 200 μL of their respective growth medium supplemented 10% fetal calf serum. After 24 hours, the cells of one plate (zero-point plate) were stained with crystal violet (see below), while the medium of the other plates was replaced by fresh culture medium (200 μl), to which the test substances were added in various concentrations (0 μM, as well as in the range of 0.001-10 μM; the final concentration of the solvent dimethyl sulfoxide was 0.5%). The cells were incubated for 4 days in the presence of test substances. Cell proliferation was determined by staining the cells with crystal violet: the cells were fixed by adding 20 μl/measuring point of an 11% glutaric aldehyde solution for 15 minutes at room temperature. After three washing cycles of the fixed cells with water, the plates were dried at room temperature. The cells were stained by adding 100 μl/measuring point of a 0.1% crystal violet solution (pH 3.0). After three washing cycles of the stained cells with water, the plates were dried at room temperature. The dye was dissolved by adding 100 μl/measuring point of a 10% acetic acid solution. The extinction was determined by photometry at a wavelength of 595 nm. The change of cell number, in percent, was calculated by normalization of the measured values to the extinction values of the zero-point plate (=0%) and the extinction of the untreated (0 μm) cells (=100%). The IC50 values (inhibitory concentration at 50% of maximal effect) were determined by means of a 4 parameter fit.

Another test relates to HeLa-MaTu-ADR cells. Put plainly: Proliferation assay, HeLa-MaTu-ADR (Method 3). Type of test: cell-based, human. The conditions noted are these: 4 days, crystal violet, read-out: Inhibition of HeLa-MaTu-ADR cell proliferation IC50. As for the experimental part:
as §1

The next test relates to B16F10 cells. The test can be described thus: Proliferation assay, B16F10 (Method 3). The following applies: 4 days, crystal violet, read-out: Inhibition of B16F10 cell proliferation IC50. Type of test: cell-based, mouse. The method, then:
as §1

Another test deals with Caco-2 cells. Put plainly: Proliferation assay, Caco-2 (Method 3). It counts as cell-based, human. The conditions noted are these: 4 days, crystal violet, read-out: Inhibition of Caco-2 cell proliferation IC50. As for the experimental part: as §1
The test system of another test is NCI-H460 cells. The test can be described thus: Proliferation assay, NCI-H460 (Method 3). It counts as cell-based, human. The conditions noted are these: 4 days, crystal violet, read-out: Inhibition of NCI-H460 cell proliferation IC50. The method, then: as §1

The structures appear in SMILES notation. Like-named read-outs stand apart in the source and are kept apart here.

On to `COc1cc(F)ccc1-c1cc(Nc2cc(CS(C)(=N)=O)ccn2)ncn1` (single isomer, unassigned) [Example 3, 6-(4-Fluoro-2-methoxyphenyl)-N-{4-[(S-methylsulfonimidoyl)methyl]pyridin-2-yl}pyrimidin-4-amine], for which the IC50 on CDK2/CycE came to 1040 nM; with HeLa cells, 850 nM.

On to `COc1cc(F)ccc1-c1cc(Nc2cc(CS(C)(=N)=O)cc(Cl)n2)ncn1` (single isomer, unassigned) [Example 6, N-{6-Chloro-4-[(S-methylsulfonimidoyl)methyl]pyridin-2-yl}-6-(4-fluoro-2-methoxyphenyl)pyrimidin-4-amine], for which the IC50 in the test with HeLa-MaTu-ADR cells was 111 nM; on CDK2/CycE, 1820 nM; in the test on B16F10 cells, 123 nM; with Caco-2 cells it was 177 nM; with NCI-H460 cells, 192 nM; in the test on HeLa cells, 104 nM.

In the case of `COc1cc(F)ccc1-c1cc(Nc2cc(CS(C)(=N)=O)cc(C(F)(F)F)n2)ncn1` (racemic) [Example 10, (rac)-6-(4-Fluoro-2-methoxyphenyl)-N-{4-[(S-methylsulfonimidoyl)methyl]-6-(trifluoromethyl)pyridin-2-yl}pyrimidin-4-amine], the IC50 in the test with HeLa-MaTu-ADR cells (Homo sapiens, 96 h) came to 104 nM; on CDK2/CycE, 797 nM; in the test with B16F10 cells (Mus musculus, B16-F10, 96 h), 100 nM; in the test with Caco-2 cells (Homo sapiens, Caco-2, 96 h), 116 nM; in the test with NCI-H460 cells (Homo sapiens, NCI-H460, 96 h) it was 135 nM; with HeLa cells (Homo sapiens, HeLa, 96 h), 60 nM.

With `COc1cc(F)ccc1-c1cc(Nc2cc(CS(C)(=N)=O)cc(C)n2)ncn1` (racemic) [Example 7, (rac)-6-(4-Fluoro-2-methoxyphenyl)-N-{6-methyl-4-[(S-methylsulfonimidoyl)methyl]pyridin-2-yl}pyrimidin-4-amine], the IC50 in the test with HeLa-MaTu-ADR cells (Homo sapiens, 96 h) is 217 nM; against CDK2/CycE, 3630 nM; in the test with B16F10 cells (Mus musculus, B16-F10, 96 h) it was 216 nM; in the test on Caco-2 cells (Homo sapiens, Caco-2, 96 h), 230 nM; in the test on NCI-H460 cells (Homo sapiens, NCI-H460, 96 h), 375 nM; in the test with HeLa cells (Homo sapiens, HeLa, 96 h), 121 nM.

For `COc1cc(F)ccc1-c1cc(Nc2cc(CS(C)(=N)=O)cc(C)n2)ncn1` (single isomer, unassigned) [Example 9, 6-(4-Fluoro-2-methoxyphenyl)-N-{6-methyl-4-[(S-methylsulfonimidoyl)methyl]pyridin-2-yl}pyrimidin-4-amine], the IC50 in the test on HeLa-MaTu-ADR cells amounted to 178 nM; at CDK2/CycE it was 4400 nM; in the test with B16F10 cells it was 205 nM; in the test with Caco-2 cells, 212 nM; in the test with NCI-H460 cells, 193 nM; in the test with HeLa cells, 52 nM.

In the case of `COc1cc(F)ccc1-c1cc(Nc2cc(CS(C)(=N)=O)cc(Cl)n2)ncn1` (racemic) [Example 4, (rac)-N-{6-Chloro-4-[(S-methylsulfonimidoyl)methyl]pyridin-2-yl}-6-(4-fluoro-2-methoxyphenyl)pyrimidin-4-amine], the IC50 came out at 97 nM with HeLa-MaTu-ADR cells (Homo sapiens, 96 h); 1130 nM on CDK2/CycE; 215 nM in the test on B16F10 cells (Mus musculus, B16-F10, 96 h); 145 nM in the test with Caco-2 cells (Homo sapiens, Caco-2, 96 h); 372 nM in the test on NCI-H460 cells (Homo sapiens, NCI-H460, 96 h); 109 nM in the test on HeLa cells (Homo sapiens, HeLa, 96 h).

In the case of `COc1cc(F)ccc1-c1cc(Nc2cc(CS(C)(=N)=O)ccn2)ncn1` (single isomer, unassigned) [Example 2, 6-(4-Fluoro-2-methoxyphenyl)-N-{4-[(S-methylsulfonimidoyl)methyl]pyridin-2-yl}pyrimidin-4-amine], the IC50 at CDK2/CycE was determined as 1540 nM; in the test with HeLa cells (Homo sapiens, HeLa, 96 h) it was 456 nM.

For `COc1cc(F)ccc1-c1cc(Nc2cc(CS(C)(=N)=O)cc(Cl)n2)ncn1` (single isomer, unassigned) [Example 5, N-{6-Chloro-4-[(S-methylsulfonimidoyl)methyl]pyridin-2-yl}-6-(4-fluoro-2-methoxyphenyl)pyrimidin-4-amine], the IC50 with HeLa-MaTu-ADR cells (Homo sapiens, 96 h) amounted to 109 nM; against CDK2/CycE it was 1420 nM; in the test on B16F10 cells (Mus musculus, B16-F10, 96 h), 122 nM; in the test on Caco-2 cells (Homo sapiens, Caco-2, 96 h), 166 nM; with NCI-H460 cells (Homo sapiens, NCI-H460, 96 h) it was 185 nM; in the test on HeLa cells (Homo sapiens, HeLa, 96 h), 104 nM.

Turning to `COc1cc(F)ccc1-c1cc(Nc2cc(CS(C)(=N)=O)ccn2)ncn1` (racemic) [Example 1, (rac)-6-(4-Fluoro-2-methoxyphenyl)-N-{4-[(S-methylsulfonimidoyl)methyl]pyridin-2-yl}pyrimidin-4-amine], the IC50 is 335 nM in the test with HeLa-MaTu-ADR cells (Homo sapiens, 96 h); 1510 nM against CDK2/CycE; 488 nM in the test with B16F10 cells (Mus musculus, B16-F10, 96 h); 537 nM in the test with Caco-2 cells (Homo sapiens, Caco-2, 96 h); 638 nM in the test on NCI-H460 cells (Homo sapiens, NCI-H460, 96 h); 477 nM in the test with HeLa cells (Homo sapiens, HeLa, 96 h).

Consider `COc1cc(F)ccc1-c1cc(Nc2cc(CS(C)(=N)=O)cc(C)n2)ncn1` (single isomer, unassigned) [Example 8, 6-(4-Fluoro-2-methoxyphenyl)-N-{6-methyl-4-[(S-methylsulfonimidoyl)methyl]pyridin-2-yl}pyrimidin-4-amine], for which the IC50 is 112 nM in the test on HeLa-MaTu-ADR cells (Homo sapiens, 96 h); 6330 nM against CDK2/CycE; 284 nM in the test on B16F10 cells (Mus musculus, B16-F10, 96 h); 246 nM with Caco-2 cells (Homo sapiens, Caco-2, 96 h); 319 nM with NCI-H460 cells (Homo sapiens, NCI-H460, 96 h); 118 nM in the test on HeLa cells.
